Assay [1] deals with T1, human GCN2 full-length protein (Homo sapiens, UniProt Q9P2K8).
T1 construct: purchased Carna Biosciences, Inc
Description: GCN2 enzyme inhibition assay (LanthaScreen TR-FRET). Type of assay: biochemical. The note with it: GCN2 enzyme inhibitory activity at compound concentration of 3 μM, Table 3-2; for inhibition at 3 µM: read-out: inhibitory rate; for inhibitory rate: 3 µM. In outline:
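Full-length human GCN2 was preincubated with compound for 1 hr at room temperature, then reacted for 1 hr with substrate and ATP added from a 570 μM ATP / 390 nM substrate solution (stock concentrations). Phosphorylation was detected by TR-FRET with a terbium-labelled anti-eIF2alpha antibody after 1 hr, with enzyme-free wells as control.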
For orientation: In TR-FRET formats the signal depends on donor and acceptor labels being close together.

Assay [2] has as its system osteosarcoma cell line U-2-OS. As to the kind of experiment: In vitro cell proliferation inhibition assay (CellTiter-Glo, low amino acid media). The note with it: McCoy's 5A low amino acid media, Table 4-2; for inhibition at 0.1 µM: Homo sapiens, U2OS, 72 h, cell proliferation inhibitory rate; for inhibitory rate: 72 hr. Type of assay: cell-based. The procedure:
A cell suspension (40 μL) (1000 cells/well) of osteosarcoma cell line U-2-OS obtained from ATCC (American Type Culture Collection) was seeded on a 384 plate using McCoy's 5A low amino acid media (amino acid content 25%). The seeded cells were incubated (37° C., 5% CO2) overnight to 24 hr at the longest. Each example compound was dissolved (10 mM) in DMSO, delivered to wells by using TECAN HP D300 (TECAN), and the plate was incubated for 72 hr (37° C., 5% CO2). A well without addition of compound was treated similarly as a control group. Celltiter-Glo (registered trade mark) Luminescent Cell Viability Assay reagent (Promega KK) equilibrated at room temperature was added (40 μL/well) to cells in each well before compound treatment (untreated group) and 72 hours after compound treatment. After incubation for 10 min, cell proliferation inhibitory rate was measured by the amount of ATP which is a cell viability marker. Luminescence of cells showing ATP amount was measured using ARVO MX (PerkinElmer). Based on the luminescence values of the untreatment group, the control group without addition of Example compound solution, and the treatment group with addition of Example compound, the cell proliferation inhibitory rate (%) of the test compound at a compound concentration of 100 nM was calculated by the following formula and the results thereof are shown in Tables 4-1, 4-2. Inhibitory rate (%)=(1−(luminescence value of treatment group−luminescence value of untreatment group)÷(luminescence value of control group−luminescence value of untreatment group))×100

T1 sequence (Q9P2K8 whole entry): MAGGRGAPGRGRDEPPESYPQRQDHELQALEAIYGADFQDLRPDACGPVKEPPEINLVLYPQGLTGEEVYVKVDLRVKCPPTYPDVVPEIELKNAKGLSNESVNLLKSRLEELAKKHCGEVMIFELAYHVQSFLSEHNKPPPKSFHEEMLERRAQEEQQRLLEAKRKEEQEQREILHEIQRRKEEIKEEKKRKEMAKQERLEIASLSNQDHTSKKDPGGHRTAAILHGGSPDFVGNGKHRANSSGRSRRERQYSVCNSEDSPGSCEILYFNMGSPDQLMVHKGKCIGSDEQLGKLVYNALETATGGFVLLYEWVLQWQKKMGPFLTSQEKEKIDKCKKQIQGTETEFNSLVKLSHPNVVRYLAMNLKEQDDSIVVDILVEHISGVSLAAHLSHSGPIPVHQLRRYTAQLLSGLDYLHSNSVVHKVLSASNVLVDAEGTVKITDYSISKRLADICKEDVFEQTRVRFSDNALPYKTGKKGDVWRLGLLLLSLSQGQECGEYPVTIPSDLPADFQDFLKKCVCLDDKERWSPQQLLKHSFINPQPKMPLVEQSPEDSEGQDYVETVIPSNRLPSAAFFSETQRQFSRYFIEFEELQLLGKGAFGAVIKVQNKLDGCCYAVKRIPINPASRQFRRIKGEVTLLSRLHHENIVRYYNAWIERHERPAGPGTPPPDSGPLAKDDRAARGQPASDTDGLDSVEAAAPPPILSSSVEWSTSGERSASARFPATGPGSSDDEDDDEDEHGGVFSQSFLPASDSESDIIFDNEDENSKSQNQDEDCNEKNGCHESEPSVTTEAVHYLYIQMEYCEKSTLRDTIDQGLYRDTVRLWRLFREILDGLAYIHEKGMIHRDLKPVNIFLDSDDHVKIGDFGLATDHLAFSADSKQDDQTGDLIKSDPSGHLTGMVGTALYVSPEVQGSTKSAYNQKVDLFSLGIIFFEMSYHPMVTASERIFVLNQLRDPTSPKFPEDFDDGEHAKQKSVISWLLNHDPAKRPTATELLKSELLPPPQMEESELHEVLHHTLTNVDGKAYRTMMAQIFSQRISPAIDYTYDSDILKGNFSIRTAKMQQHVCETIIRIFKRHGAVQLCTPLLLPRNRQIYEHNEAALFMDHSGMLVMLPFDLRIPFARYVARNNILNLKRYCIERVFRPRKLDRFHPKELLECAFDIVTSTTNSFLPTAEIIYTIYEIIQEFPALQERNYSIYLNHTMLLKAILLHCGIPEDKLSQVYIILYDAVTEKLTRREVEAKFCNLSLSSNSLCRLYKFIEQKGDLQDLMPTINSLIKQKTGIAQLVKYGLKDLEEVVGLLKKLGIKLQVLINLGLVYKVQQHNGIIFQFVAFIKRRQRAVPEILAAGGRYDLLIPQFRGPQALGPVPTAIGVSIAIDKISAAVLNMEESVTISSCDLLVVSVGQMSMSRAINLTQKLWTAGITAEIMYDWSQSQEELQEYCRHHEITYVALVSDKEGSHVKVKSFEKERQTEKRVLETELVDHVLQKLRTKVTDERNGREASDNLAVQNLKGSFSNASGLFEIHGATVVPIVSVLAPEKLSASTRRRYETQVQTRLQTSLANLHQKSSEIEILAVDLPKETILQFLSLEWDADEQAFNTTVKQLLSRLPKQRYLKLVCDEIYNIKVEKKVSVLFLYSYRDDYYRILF

Consider `C[C@H](CO)Nc1ncc(C#Cc2c(F)ccc(NS(=O)(=O)c3cc(Cl)cc(CO)c3Cl)c2F)nn1` [Example 178, 2,5-dichloro-N-(2,4-difluoro-3-((3-(((2R)-1-hydroxypropan-2-yl)amino)-1,2,4-triazin-6-yl)ethynyl)phenyl)-3-(hydroxymethyl)benzenesulfonamide], for which the inhibition at 3 µM in assay [1] stood at 100%. Also, the inhibition at 0.1 µM in assay [2] stood at 74%.
The matching figures for `O=S(=O)(Nc1ccc(F)c(C#Cc2cnc(NC3COC3)nn2)c1F)c1cc(Cl)cc(CO)c1Cl` [Example 179, 2,5-dichloro-N-(2,4-difluoro-3-((3-(oxetan-3-ylamino)-1,2,4-triazin-6-yl)ethynyl)phenyl)-3-(hydroxymethyl)benzenesulfonamide]: 102% and 75%.
The like results for `C[C@H](CO)Nc1ncc(C#Cc2c(F)ccc(NS(=O)(=O)c3cc(Cl)cc(CO)c3Cl)c2F)cn1` [Example 180, 2,5-dichloro-N-(2,4-difluoro-3-((2-(((2R)-1-hydroxypropan-2-yl)amino)pyrimidin-5-yl)ethynyl)phenyl)-3-(hydroxymethyl)benzenesulfonamide] were, in that order, 103% and 76%.
Regarding `O=S(=O)(Nc1ccc(F)c(C#Cc2cnc(NC3COC3)nc2)c1F)c1cc(Cl)cc(CO)c1Cl` [Example 181, 2,5-dichloro-N-(2,4-difluoro-3-((2-(oxetan-3-ylamino)pyrimidin-5-yl)ethynyl)phenyl)-3-(hydroxymethyl)benzenesulfonamide], the inhibition at 3 µM in assay [1] was 102%. Besides, in assay [2], the inhibition at 0.1 µM amounted to 80%.
The like results for `CNc1ncc(Cl)cc1S(=O)(=O)Nc1ccc(F)c(C#Cc2cnc(N[C@H]3CC[C@H](O)CC3)nc2)c1F` [Example 182, 5-chloro-N-(2,4-difluoro-3-((2-((trans-4-hydroxycyclohexyl)amino)pyrimidin-5-yl)ethynyl)phenyl)-2-(methylamino)pyridine-3-sulfonamide] were, in that order, 102% and 71%.
On to `CNc1ncc(Cl)cc1S(=O)(=O)Nc1ccc(F)c(C#Cc2cnc(N[C@H](C)CO)nc2)c1F` [Example 183, 5-chloro-N-(2,4-difluoro-3-((2-(((2R)-1-hydroxypropan-2-yl)amino)pyrimidin-5-yl)ethynyl)phenyl)-2-(methylamino)pyridine-3-sulfonamide], for which the inhibition at 3 µM in assay [1] turned out to be 103%. In addition, in assay [2], the inhibition at 0.1 µM was 77%.
Regarding `C[C@H](CO)Nc1ncc(C#Cc2c(F)ccc(NS(=O)(=O)c3cc(Cl)cc4c3OCC4O)c2F)cn1` (stereo partly drawn) [Example 184, 5-chloro-N-(2,4-difluoro-3-((2-(((2R)-1-hydroxypropan-2-yl)amino)pyrimidin-5-yl)ethynyl)phenyl)-3-hydroxy-2,3-dihydro-1-benzofuran-7-sulfonamide], the inhibition at 3 µM in assay [1] came out at 99%. The inhibitory rate in assay [2] is 59%.
For `O=S(=O)(Nc1ccc(F)c(C#Cc2cnc(N[C@H]3CC[C@H](O)CC3)nc2)c1F)c1cc(Cl)cc2c1OCC2O` (stereo partly drawn) [Example 185, 5-chloro-N-(2,4-difluoro-3-((2-((trans-4-hydroxycyclohexyl)amino)pyrimidin-5-yl)ethynyl)phenyl)-3-hydroxy-2,3-dihydro-1-benzofuran-7-sulfonamide], in assay [1], the inhibition at 3 µM was found to be 100%. In addition, the inhibition at 0.1 µM in assay [2] came out at 56%.
Take `C[C@H](CO)Nc1ncc(C#Cc2c(F)ccc(NS(=O)(=O)c3cc(Cl)cc4c3OCC4O)c2F)cn1` (stereo partly drawn) [Example 186, 5-chloro-N-(2,4-difluoro-3-((2-(((2R)-1-hydroxypropan-2-yl)amino)pyrimidin-5-yl)ethynyl)phenyl)-3-hydroxy-2,3-dihydro-1-benzofuran-7-sulfonamide]: the inhibitory rate in assay [1] worked out at 100%; in assay [2] it was 43%.
In the case of `Cc1ncc(Cl)cc1S(=O)(=O)Nc1ccc(F)c(C#Cc2cnc(N[C@H]3CC[C@H](O)CC3)nc2)c1F` [Example 188, 5-chloro-N-(2,4-difluoro-3-((2-((trans-4-hydroxycyclohexyl)amino)pyrimidin-5-yl)ethynyl)phenyl)-2-methylpyridine-3-sulfonamide], the inhibition at 3 µM in assay [1] was 100%. The inhibition at 0.1 µM in assay [2] stood at 77%.
For the compound `Cc1ncc(Cl)cc1S(=O)(=O)Nc1ccc(F)c(C#Cc2cnc(N[C@H](C)CO)nc2)c1F` [Example 189, 5-chloro-N-(2,4-difluoro-3-((2-(((2R)-1-hydroxypropan-2-yl)amino)pyrimidin-5-yl)ethynyl)phenyl)-2-methylpyridine-3-sulfonamide], the inhibition at 3 µM in assay [1] stood at 99%. Also, in assay [2], the inhibition at 0.1 µM turned out to be 79%.
As for `O=S(=O)(Nc1ccc(F)c(C#Cc2cnc(N[C@H]3CC[C@H](O)CC3)nc2)c1F)c1cc(Cl)cc2c1OCC2O` (stereo partly drawn) [Example 190, 5-chloro-N-(2,4-difluoro-3-((2-((trans-4-hydroxycyclohexyl)amino)pyrimidin-5-yl)ethynyl)phenyl)-3-hydroxy-2,3-dihydro-1-benzofuran-7-sulfonamide], the figures for the inhibitory rate in assay [1] and in assay [2] were 99% and 65%, respectively.
The matching figures for `O=S(=O)(Nc1ccc(F)c(C#Cc2cnc(N[C@H]3CC[C@H](O)CC3)nc2)c1F)c1cc(Cl)cc2c1OCC2O` (stereo partly drawn) [Example 191, 5-chloro-N-(2,4-difluoro-3-((2-((trans-4-hydroxycyclohexyl)amino)pyrimidin-5-yl)ethynyl)phenyl)-3-hydroxy-2,3-dihydro-1-benzofuran-7-sulfonamide]: 99% and 74%.
Regarding `Cc1ncc(Cl)cc1S(=O)(=O)Nc1ccc(F)c(C#Cc2cnc(N[C@@H](C)CO)nc2)c1F` [Example 193, 5-chloro-N-(2,4-difluoro-3-((2-(((2S)-1-hydroxypropan-2-yl)amino)pyrimidin-5-yl)ethynyl)phenyl)-2-methylpyridine-3-sulfonamide], in assay [1], the inhibition at 3 µM is 98%. Further, the inhibition at 0.1 µM in assay [2] was determined as 64%.

(Values after US10696651B2, “Heterocyclic compound” (Takeda Pharmaceutical Company Limited, priority 2016, dated 2020).)
